Data reported in patent publication US10895019B2, “Encoded self-assembling chemical libraries (ESACHEL)” (Eidgenoessische Technische Hochschule Zurich, priority 2002, dated 2021).

Legend:
human carbonic anhydrase = assay: carbonic anhydrase activity assay with substrate 4-Nitrophenylacetate (Pocker and Stone); format: biochemical; conditions: absorption at 400 nm, read-out: IC50 towards human carbonic anhydrase
Experimental: We measured the inhibitory concentration 50 [IC50] of 4-sulfonamido benzoic acid propylamide using an activity assay described by Pocker and Stone [(1967), Biochemistry 6, 668-678]. In short, we incubated carbonic anhydrase in separate wells of a transparent 96 well microtiter plate with different concentrations of the inhibitor and the substrate 4-Nitrophenylacetate. The proceeding of the reaction was monitored at the increase of absorption at 400 nm due to formation of the product 4-nitrophenol.

streptavidin = streptavidin (Streptomyces avidinii, UniProt P22629); conditions: Green (1966); cited from earlier work

IC50 (human carbonic anhydrase) [µM]	SMILES	affinity to streptavidin relative to biotin (streptavidin)
6	CCCNC(=O)c1ccc(S(N)(=O)=O)cc1 [4-sulfonamido benzoic acid propylamide]	–
–	N=C1N[C@H]2[C@H](CS[C@H]2CCCCC(=O)O)N1 [Iminobiotin]	substantially reduced affinity
